In patent publication US10875895B2, “Antibacterial cell-penetrating peptides” (Purdue Research Foundation, priority 2018, dated 2020):
Read-outs that look alike come from different tables or passages of the source. Non-standard residues stand in square brackets, D forms with d. Residues, ends and D or L forms follow the SMILES beside them. *: point of attachment. X1 = O=C(O)c1cc(C(=O)*)ccc1-c1c2ccc(=O)cc-2oc2cc(O)ccc12; Pro(trans-4-guanidino) = N=C(N)N[C@H]1CN[C@H](C(=O)O)C1; Hyp = O=C(O)[C@@H]1C[C@@H](O)CN1; Isobutyl = CC(C)C*

Assays:
[1] = test system: S. aureus RN 4220; assay: MIC, broth microdilution (CLSI); format: cell-based
Method: (§1) The minimum inhibitory concentration (MIC) of the peptides (in uM/ml) and control antibiotics (vancomycin and gentamicin) in μg/mL, were determined using the broth microdilution method according to the guidelines of the Clinical and Laboratory Standards Institute (CLSI) guidelines. See CLSI. 2007. Methods for dilution antimicrobial susceptibility tests for bacteria that grow aerobically; approved standard M7-A7. CLSI, Wayne, Pa.

[2] = test system: S. flexneri 1a; assay: MIC, broth microdilution (CLSI); format: cell-based; settings: enteric pathogens
Method: as §1

[3] = test system: E. faecium 700221
[4] = test system: S. aureus NRS 384
[5] = test system: K. pneumoniae 1706
[6] = test system: K. pneumonia NR 41920
[7] = test system: K. pneumonia NR 41928
[8] = test system: A. baumannii 1605
[9] = test system: P. aeruginosa 50573
[10] = test system: E. cloacae 1134
[11] = test system: S. aureus NRS 383
[12] = test system: S. aureus NRS 382
[13] = test system: S. aureus ATCC 6538
[14] = test system: S. epidermidis NRS 101
[15] = test system: VRSA 5
[16] = test system: VRSA 10
[17] = test system: P. aeruginosa 48982
[18] = test system: P. aeruginosa 31040
[19] = test system: P. aeruginosa 31041
[20] = test system: A. baumannii 1747
[21] = test system: A baumannii 19606
[22] = test system: L. monocytogenes 191112
[23] = test system: S. enteritidis
[24] = test system: E. coli 21922
[25] = test system: S. typhimurium LT2

Measured: MIC

CC(C)CO[C@@H]1C[C@@H](C(=O)N2C[C@H](NC(=N)N)C[C@H]2C(=O)N2C[C@H](NC(=N)N)C[C@H]2C(=O)N2C[C@H](OCC(C)C)C[C@H]2C(=O)N2C[C@H](NC(=N)N)C[C@H]2C(=O)N2C[C@H](NC(=N)N)C[C@H]2C(=O)N2C[C@H](OCC(C)C)C[C@H]2C(=O)N2C[C@H](NC(=N)N)C[C@H]2C(=O)N2C[C@H](NC(=N)N)C[C@H]2C(=O)N2C[C@H](OCC(C)C)C[C@H]2C(=O)N2C[C@H](NC(=N)N)C[C@H]2C(=O)N2C[C@H](NC(=N)N)C[C@H]2C(=O)N2C[C@H](OCC(C)C)C[C@H]2C(N)=O)N(C(=O)CNC(=O)c2ccc(-c3c4ccc(=O)cc-4oc4cc(O)ccc34)c(C(=O)O)c2)C1 [Example 1] (X1-G[Hyp](Isobutyl)[Pro(trans-4-guanidino)][Pro(trans-4-guanidino)][Hyp](Isobutyl)[Pro(trans-4-guanidino)][Pro(trans-4-guanidino)][Hyp](Isobutyl)[Pro(trans-4-guanidino)][Pro(trans-4-guanidino)][Hyp](Isobutyl)[Pro(trans-4-guanidino)][Pro(trans-4-guanidino)][Hyp](Isobutyl)-NH2)
8 µM: [5]; 1706
1 µM: [2] | [3]; 700221 | [7] | [13]; ATCC 6538 | [14]; NRS 101 | [21]; 19606 | [23] | [24]; 21922 | [25]; LT2
0.5 µM: [8]; 1605 | [20]; 1747
4 µM: [6] | [17]; 48982
2 µM: [1] | [4]; NRS 384 | [9]; 50573 | [10]; 1134 | [11]; NRS 383 | [12]; NRS 382 | [15] | [16] | [18]; 31040 | [19]; 31041 | [22]; 191112

gentamicin
0.5 µM: [1] | [2] | [4]; S. aureus NRS 384, ESKAPE pathogens | [10]; E. cloacae 1134, ESKAPE pathogens | [12]; S. aureus NRS 382 | [15] | [16] | [22]; L. monocytogenes 191112, enteric pathogens | [25]; S. typhimurium LT2, enteric pathogens
>32 µM: [3]; E. faecium 700221, ESKAPE pathogens | [8]; A. baumannii 1605, ESKAPE pathogens | [11]; S. aureus NRS 383 | [17]; P. aeruginosa 48982
0.25 µM: [9]; P. aeruginosa 50573, ESKAPE pathogens | [20]; A. baumannii 1747 | [23]; S. enteritidis, enteric pathogens
16 µM: [18]; P. aeruginosa 31040 | [21]; A baumannii 19606
0.125 µM: [13]; S. aureus ATCC 6538
1 µM: [6]; K. pneumonia NR 41920, ESKAPE pathogens | [7]; K. pneumonia NR 41928, ESKAPE pathogens
32 µM: [14]; S. epidermidis NRS 101 | [19]; P. aeruginosa 31041
2 µM: [5]; K. pneumoniae 1706, ESKAPE pathogens | [24]; E. coli 21922, enteric pathogens
